Where two headings read alike, the source gives them in different places.
Key:
[1] = target: Beta Secretase enzyme (BACE) (Homo sapiens, UniProt P56817); experiment: In vitro enzymatic BACE FRET (fluorescence resonance energy transfer) assay; assay type: biochemical; conditions: average IC50, enzyme assay; read-out: BACE 1 FRET assay
Outline: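 Fluorescence read after Tris quench to neutral pH. Reaction: 50 nM fluorophore/quencher peptide substrate, 1 h, in 0.05 M acetate pH 4.2, 10% DMSO final, 100 uM genapol.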

[2] = system: Aβ40 in conditioned medium of cells stably expressing Amyloid Precursor Protein (APP); experiment: In vitro BACE cell-based assay (Aβ40 in conditioned medium, sandwich ELISA); conditions: read-out: HEK cell assay
Outline: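 The sandwich ELISA pairs pAb40 capture (3 h, 4 °C) with 6E10 detection (2 h, 4 °C) and a streptavidin-europium TRF read-out. Supernatants come from APP-expressing cells grown in 10% FBS DMEM.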

[3] = Homo sapiens, HEK293, average IC50, HEK cells
[4] = Homo sapiens, HEK293, average IC50

Chain of Beta Secretase enzyme (BACE) (P56817 46-501, species assumed): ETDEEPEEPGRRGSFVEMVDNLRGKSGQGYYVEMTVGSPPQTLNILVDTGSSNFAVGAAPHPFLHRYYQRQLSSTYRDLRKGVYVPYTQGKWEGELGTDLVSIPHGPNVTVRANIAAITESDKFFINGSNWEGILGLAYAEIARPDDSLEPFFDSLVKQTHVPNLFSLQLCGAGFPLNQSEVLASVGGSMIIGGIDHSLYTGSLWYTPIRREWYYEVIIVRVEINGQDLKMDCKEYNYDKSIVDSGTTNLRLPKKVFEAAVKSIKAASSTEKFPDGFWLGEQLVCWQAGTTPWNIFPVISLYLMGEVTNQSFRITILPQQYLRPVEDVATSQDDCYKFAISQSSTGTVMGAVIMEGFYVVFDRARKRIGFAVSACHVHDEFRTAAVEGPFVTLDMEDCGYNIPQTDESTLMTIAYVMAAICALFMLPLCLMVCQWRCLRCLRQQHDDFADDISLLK

| Compound | IC50 [1] [nM] | IC50 [2, 3] [nM] | IC50 [2, 4] [nM] | IC50 ([2]; average IC50) [nM] |
| --- | --- | --- | --- | --- |
| CC1(C#Cc2cc3c(nc2F)Oc2ccc(-c4ccc(F)nc4)cc2[C@]32COC(N)=N2)COC1 [Example 905, (5R)-2-fluoro-7-(6-fluoro-3-pyridinyl)-3-((3-methyl-3-oxetanyl)ethynyl)spiro[chromeno[2,3-b]pyridine-5,4′-[1,3]oxazol]-2′-amine] | 126 | 3110 | – | – |
| COC(C)(C)C#Cc1cnc2c(c1)[C@@]1(COC(N)=N1)c1cc(-c3cncc(F)c3)c(F)cc1O2 [Example 642, (5R)-8-fluoro-7-(5-fluoro-3-pyridinyl)-3-(3-methoxy-3-methyl-1-butyn-1-yl)spiro[chromeno[2,3-b]pyridine-5,4′-[1,3]oxazol]-2′-amine] | 109 | 435 | – | – |
| Cc1noc(C)c1-c1cccc(-c2ccc3c(c2)[C@@]2(COC(N)=N2)c2cc(C4=CCOCC4)ncc2O3)c1 [Example 245, (5S)-3-(3,6-dihydro-2H-pyran-4-yl)-7-(3-(3,5-dimethyl-4-isoxazolyl)phenyl)spiro[chromeno[2,3-c]pyridine-5,4′-[1,3]oxazol]-2′-amine] | 23 | – | 529 | – |
| NC1=N[C@@]2(CS1)c1cc(-c3cccnc3F)c(F)cc1Oc1c(F)cc(N3CCOCC3)cc12 [Example 879, (4S)-3′,5′-difluoro-2′-(2-fluoro-3-pyridinyl)-7′-(4-morpholinyl)spiro[1,3-thiazole-4,9′-xanthen]-2-amine] | 0.3 | 11 | – | – |
| NC1=N[C@]2(CO1)c1cc(-c3ccnc(F)c3)ccc1Oc1cnc(Cl)cc12 [Example 392, (5R)-3-chloro-7-(2-fluoro-4-pyridinyl)spiro[chromeno[2,3-c]pyridine-5,4′-[1,3]oxazol]-2′-amine] | 5540 | 10000 | – | – |
| CC(C)(C)COc1cc2c(cn1)Oc1ccc(-c3cccnc3F)cc1C21COC(N)=N1 (stereo not shown) [Example 102, 7-(2-fluoropyridin-3-yl)-3-(neopentyloxy)-5′H-spiro[chromeno[2,3-c]pyridine-5,4′-oxazol]-2′-amine 2,2,2-trifluoroacetate] | 1.1 | 26.2 | – | – |
| NC1=N[C@@]2(CO1)c1cc(-c3ccc(F)nc3)ccc1Oc1c(F)cc(N3CCOCC3)cc12 [Example 202, (4S)-4′-fluoro-7′-(6-fluoro-3-pyridinyl)-2′-(4-morpholinyl)spiro[1,3-oxazole-4,9′-xanthen]-2-amine] | 4.9 | – | 11.8 | – |
| COc1cc(F)c2c(c1)C1(COC(N)=N1)c1cc(Br)c(F)cc1O2 (stereo not shown) [Example 521, 2′-bromo-3′,5′-difluoro-7′-methoxyspiro[1,3-oxazole-4,9′-xanthen]-2-amine] | 7240 | 10000 | – | – |
| NC1=N[C@@]2(CO1)c1cc(C3=CCOCC3)cc(F)c1Oc1ccc(-c3cncnc3)c(F)c12 [Example 1041, (4S)-7′-(3,6-dihydro-2H-pyran-4-yl)-1′,5′-difluoro-2′-(5-pyrimidinyl)spiro[1,3-oxazole-4,9′-xanthen]-2-amine] | 3590 | – | ≥ 10000 | – |
| CC1(CCc2cc(F)c3c(c2)[C@]2(COC(N)=N2)c2cc(-c4cccnc4F)ccc2O3)COC1 [Example 101, (S)-4′-fluoro-7′-(2-fluoropyridin-3-yl)-2′-(2-(3-methyloxetan-3-yl)ethyl)-5H-spiro[oxazole-4,9′-xanthen]-2-amine] | 0.5 | 4.5 | – | – |
| Cc1ccc(-c2cnc3c(c2)[C@]2(CSC(N)=N2)c2cc(-c4cccnc4)ccc2O3)cn1 [Example 958, (5S)-3-(6-methyl-3-pyridinyl)-7-(3-pyridinyl)spiro[chromeno[2,3-b]pyridine-5,4′-[1,3]thiazol]-2′-amine] | 1.5 | 19 | – | – |
| CC1(C)C[C@H](c2cc3c(cn2)Oc2ccc(-c4cccnc4F)cc2[C@@]32COC(N)=N2)CCO1 [Example 377, (5S)-3-((4R)-2,2-dimethyltetrahydro-2H-pyran-4-yl)-7-(2-fluoro-3-pyridinyl)spiro[chromeno[2,3-c]pyridine-5,4′-[1,3]oxazol]-2′-amine] | 5.9 | – | 29.4 | – |
| Cc1ccn(-c2cc(F)c3c(c2)[C@]2(COC(N)=N2)c2cc(-c4cccnc4)ccc2O3)n1 [Example 633, (4S)-4′-fluoro-2′-(3-methyl-1H-pyrazol-1-yl)-7′-(3-pyridinyl)spiro[1,3-oxazole-4,9′-xanthen]-2-amine] | 3.9 | 34 | – | – |
| NC1=N[C@@]2(CO1)c1cc(-c3cccnc3)ccc1Oc1cnc(N3CC[C@H](F)C3)cc12 [Example 412, (5S)-3-((3S)-3-fluoro-1-pyrrolidinyl)-7-(3-pyridinyl)spiro[chromeno[2,3-c]pyridine-5,4′-[1,3]oxazol]-2′-amine] | 7.6 | 20.8 | – | – |
| (4S)-4′-fluoro-7′-(2-fluoro-3-pyridinyl)-2′-((2S)-tetrahydro-2H-pyran-2-yl)spiro[1,3-oxazole-4,9′-xanthen]-2-amine [Example 219] | 0.9 | – | – | 6.2 |
| COc1cc(F)c2c(c1)[C@]1(COC(N)=N1)c1cc(-c3cncc(C(C)(F)F)c3)ccc1O2 [Example 1070, (4S)-7′-(5-(1,1-difluoroethyl)-3-pyridinyl)-4′-fluoro-2′-methoxyspiro[1,3-oxazole-4,9′-xanthen]-2-amine] | 345 | – | 367 | – |
| Cc1ncccc1-c1ccc2c(c1)[C@@]1(COC(N)=N1)c1cc(C3=CCOCC3)ncc1O2 [Example 247, (5S)-3-(3,6-dihydro-2H-pyran-4-yl)-7-(2-methyl-3-pyridinyl)spiro[chromeno[2,3-c]pyridine-5,4′-[1,3]oxazol]-2′-amine] | 44.9 | – | 45.5 | – |
| CC1(COc2cc(F)c3c(c2)[C@]2(COC(N)=N2)c2cc(-c4cncc(Cl)c4)ccc2O3)COC1 [Example 206, (4S)-7′-(5-chloro-3-pyridinyl)-4′-fluoro-2′-((3-methyl-3-oxetanyl)methoxy)spiro[1,3-oxazole-4,9′-xanthen]-2-amine] | 0.7 | – | 2.4 | – |
| NC1=N[C@@]2(CO1)c1cc(-c3cc(F)cnc3F)ccc1Oc1cnc(C3=CCOCC3)cc12 [Example 600, (5S)-7-(2,5-difluoro-3-pyridinyl)-3-(3,6-dihydro-2H-pyran-4-yl)spiro[chromeno[2,3-c]pyridine-5,4′-[1,3]oxazol]-2′-amine] | 17.7 | 165 | – | – |
| NC1=N[C@@]2(CO1)c1cc(-c3cccnc3F)ccc1Oc1cnc(C3=CCCCC3)cc12 [Example 386, (5S)-3-(1-cyclohexen-1-yl)-7-(2-fluoro-3-pyridinyl)spiro[chromeno[2,3-c]pyridine-5,4′-[1,3]oxazol]-2′-amine] | 0.4 | 11.1 | – | – |
| Cn1cc(-c2cccc(-c3ccc4c(c3)[C@@]3(COC(N)=N3)c3cc(C5=CCOCC5)ncc3O4)c2)cn1 [Example 243, (5S)-3-(3,6-dihydro-2H-pyran-4-yl)-7-(3-(1-methyl-1H-pyrazol-4-yl)phenyl)spiro[chromeno[2,3-c]pyridine-5,4′-[1,3]oxazol]-2′-amine] | 19.5 | – | 287 | – |
| CC1(C#Cc2cnc3c(c2)[C@]2(COC(N)=N2)c2cc(-c4cnccc4F)c(F)cc2O3)COC1 [Example 621, (5S)-8-fluoro-7-(4-fluoro-3-pyridinyl)-3-((3-methyl-3-oxetanyl)ethynyl)spiro[chromeno[2,3-b]pyridine-5,4′-[1,3]oxazol]-2′-amine] | 0.6 | 5 | – | – |
| NC1=N[C@]2(CO1)c1cc(-c3cccnc3F)c(F)cc1Oc1ncc(-c3ccc(F)nc3)cc12 [Example 897, (5R)-8-fluoro-7-(2-fluoro-3-pyridinyl)-3-(6-fluoro-3-pyridinyl)spiro[chromeno[2,3-b]pyridine-5,4′-[1,3]oxazol]-2′-amine] | 175 | 6360 | – | – |
| Cn1cc(-c2cc3c(cn2)Oc2ccc(-c4cncc(Cl)c4)cc2[C@@]32COC(N)=N2)cn1 [Example 232, (5S)-7-(5-chloro-3-pyridinyl)-3-(1-methyl-1H-pyrazol-4-yl)spiro[chromeno[2,3-c]pyridine-5,4′-[1,3]oxazol]-2′-amine] | 1.3 | – | 7.4 | – |
| CC1(COc2cc(F)c3c(c2)[C@@]2(CSC(N)=N2)c2cc(-c4cncnc4)c(F)cc2O3)COC1 [Example 876, (4R)-3′,5′-difluoro-7′-((3-methyl-3-oxetanyl)methoxy)-2′-(5-pyrimidinyl)spiro[1,3-thiazole-4,9′-xanthen]-2-amine] | 44.9 | 634 | – | – |
| COc1ccnc(F)c1-c1ccc2c(c1)[C@@]1(COC(N)=N1)c1cc(-c3ccnc(F)c3)ncc1O2 [Example 681, (5S)-7-(2-fluoro-4-methoxy-3-pyridinyl)-3-(2-fluoro-4-pyridinyl)spiro[chromeno[2,3-c]pyridine-5,4′-[1,3]oxazol]-2′-amine] | 0.5 | 12 | – | – |
| CC1(/C=C/c2cc(F)c3c(c2)[C@]2(COC(N)=N2)c2cc(-c4cccnc4F)ccc2O3)COC1 [Example 561, (4S)-4′-fluoro-7′-(2-fluoro-3-pyridinyl)-2′-((E)-2-(3-methyl-3-oxetanyl)ethenyl)spiro[1,3-oxazole-4,9′-xanthen]-2-amine] | 2 | 3.7 | – | – |
| N#Cc1cccc(-c2ccc3c(c2)[C@@]2(COC(N)=N2)c2cc(N4CC[C@H](F)C4)nc(F)c2O3)c1 [Example 924, 3-((5S)-2′-amino-1-fluoro-3-((3S)-3-fluoro-1-pyrrolidinyl)spiro[chromeno[2,3-c]pyridine-5,4′-[1,3]oxazol]-7-yl)benzonitrile] | 0.5 | 18 | – | – |
| N#Cc1cncc(-c2ccc3c(c2)[C@@]2(COC(N)=N2)c2cc(C4=CCOCC4)cc(F)c2O3)c1 [Example 557, 5-((4S)-2-amino-7′-(3,6-dihydro-2H-pyran-4-yl)-5′-fluorospiro[1,3-oxazole-4,9′-xanthen]-2′-yl)-3-pyridinecarbonitrile] | 0.7 | 3.7 | – | – |

— patent publication US8883782B2, “Spiro-tetracyclic ring compounds as beta-secretase modulators and methods of use” (Amgen Inc., priority 2010, dated 2014)
